Data: patent US20020198221A1, “N-methyl-N-(3-{3-[2-thienylcarbonyl]-pyrazol-[1,5-alpha]-pyrimidin-7-yl}phenyl)acetamide and compositions and, methods related thereto” (priority 1999, published 2002)
Entries after “also recorded” stand apart in the source; their conditions may differ.

Tests used:
[1] = test system: rats; test: potentiation of ETOH delivered 24 hours after dosing (hangover liability); format: in vivo, rat; settings: for Hangover Liability Index: ETOH 24 hours after administration; for potentiation of ETOH delivered 24 hours after drug treatment: rat, in vivo
Method: The important observation that Compound 1 causes very little potentiation of ETOH was extended by determining a Hangover Liability Index, the measure of the ability of the drug to potentiate ETOH 24 hours after administration (see Table 3 below). Sedative-hypnotic agents have been reported to produce drowsiness, confusion and other side effects in man on the day following the normal overnight use of these compounds.

[2] = test system: squirrel monkeys; test: Squirrel Monkey Conflict Procedure; format: in vivo
Method: The Squirrel Monkey Conflict Procedure involves monkeys which are initially trained to press a bar to receive a food reward. In later sessions the animals were given occasional electrical shocks following randomly selected bar presses. These animals responded to the conflict situation by substantially lowering their levels of bar-pressing activity. […] This increase in conflict response reflects the anxiolytic effects of the drug. The increase drops off at 4.0 mg/kg, which may be due to a subtle sedative effect of the compound which begins developing in this dose range. The inverted-U shaped dose-response function described above for Compound 1 is consistent with the profile of other sedative-hypnotic drugs of the benzodiazepine-ligand class, and reflects the sedative properties of these drugs (Cook and Sepinwall, supra).

[3] = test system: rats; test: one-trial passive avoidance test (amnesia); format: in vivo, rat; settings: for Amnestic Liability Index: ratio ED50 decreased motor activity / MED to produce amnesia
Method: This effect can be studied in rats by the one-trial passive avoidance test. In this test an undrugged, naive rat is given an electric shock when it moves from the illuminated side to the darkened side of a two-compartment chamber. When tested for recall of this training 24 hours later, a placebo-injected animal will show excellent recall of the aversive training, and thus a high latency time for entering the darkened side.

[4] = test system: rats; test: rod walking test; format: in vivo; settings: Rattus norvegicus, oral
Method: (§1) The sedative effects of Compound 1 were measured in rats using a panel of standard tests which monitor the effects of drugs on motor activity, muscle relaxation and motor coordination.

[5] = test system: squirrel monkeys; test: vigilance test (reaction time) in squirrel monkeys; format: in vivo, squirrel monkey; settings: >1 mg/kg orally one hour before testing
Description: Vigilance tests based on reaction time measurements in monkeys measure drug induced slowing of responses and decreases in attentional or cognitive processes. Squirrel monkeys were trained to respond to a visual trigger by bar pressing for a food reward.

[6] = test system: rats; test: inclined screen grip strength test; format: in vivo, rat; settings: for ED50: Rattus norvegicus
Method: as §1
(§2) This latter compound is well characterized as a competitive antagonist at the benzodiazepine site, which can reverse the effects of benzodiazepine site agonists.
(§3) Administration of benzodiazopines to animals and to man for periods of several weeks can result in a tolerance to their sedative effects (Finkle, supra). In order to assess tolerance to Compound 1, its effects were tested on rat motor activity, and on grip strength using the inclined screen procedures after single and repeated administrations. The results of these studies were then compared to results gathered from rats which had received similar dosings of triazolam.

[7] = test system: rats; test: prevention of chemically induced convulsions in rats; format: in vivo, rat; settings: for ED50: Rattus norvegicus
Description: Benzodiazepine sedative-hypnotic agents are potent anticonvulsants in animals, and are used clinically for the treatment of status epilepticus. Oral doses of Compound 1 were effective in blocking convulsions in rats which resulted from injections of agents know to induce convulsion (see Table 1 below).

[8] = target: benzodiazepine site on the GABAA receptor; test: [3H]flunitrazepam binding to rat cortex; settings: for IC50: rat cortex, read-out: IC50, displacement of [3H]flunitrazepam binding
[9] = test system: rats; test: panel of standard tests for sedative effects in rats (motor activity, muscle relaxation, motor coordination); format: in vivo, rat
Method: as §1

[10] = test system: rats; test: potentiation of ETOH-induced loss of righting response, ETOH 60 minutes after dosing; format: in vivo, rat; settings: for ETOH Liability Index: ratio ED50 motor activity / MED ETOH potentiation; for Minimum Effective Dose (MED mg/kg) to potentiate ETOH-induced loss of righting response: rats, ETOH 3.2 g/kg i.p. 60 minutes after dosing
Description: Benzodiazepines and barbiturate sedative-hypnotics produce a profound potentiation of the deleterious effects of ethanol (ETOH) in man and animals (Ayd, supra). Intraperitoneal ETOH alone, when administered to rats at a dose of 3.2 g/kg, produces a reliable loss of righting response. The loss of righting response caused by ETOH can be used to measure the possible interaction of ETOH with test drugs. This is done by delivering the ETOH and a test drug sequentially, and determining the Minimum Effective Dose of test drug which will potentiate the time that ETOH produces the loss of righting response. The ETOH Liability Index for a drug can be determined by calculating the ratio of (1) the ED50 of the test drug to decrease motor activity (a measure of sedation) to (2) the Minimum Effective Dose (MED) of the test drug to potentiate the time for ETOH-induced loss of righting response.
ETOH Liability Indices were determined experimentally for Compound 1, flurazepam and triazolam by intraperitoneally delivering ETOH (3.2 g/kg) to the animals 60 minutes after dosing with each test drug (see Table 2 below).

[11] = test system: GABAA receptor; test: [35S]TBPS binding to rat cortex membranes
Description: TBPS binds to a site on the GABAA receptor which is closely associated with the chloride channel, and an increase in TBPS binding correlates with increased activation of the chloride conductance (i.e., enhanced GABAA receptor function). Compounds which act as agonists at the benzodiazepine site increase TBPS binding to varying degrees, which reflects their relative efficacies.

[12] = test system: squirrel monkeys; test: EEG studies in squirrel monkeys; format: in vivo, squirrel monkey; settings: 4.0 mg/kg i.m.
Method: (§4) Compound 1 produced dose-related increases in sleep duration in rats, with a minimum effective dose of 2.0 mg/kg.

[13] = test system: rats; test: Thirsty Rat Conflict Procedure; format: in vivo
Method: The Thirsty Rat Conflict Procedure involves rats which are deprived of water for 48 hours. They are then given brief electrical shocks following each 20th lick of a drinking tube. These shocks create a “conflict situation” which results in a marked decrease in licking (drinking) behavior.

[14] = target: benzodiazepine site on the GABAA receptor; test: [3H]flunitrazepam binding to rat cerebellum membranes; settings: read-out: IC50, inhibition of [3H]flunitrazepam binding
[15] = test system: rats; test: motor activity in rats (activity meter); format: in vivo, rat; settings: for ED50: Rattus norvegicus
Method: as §1, §2, §3

[16] = test system: rats; test: prevention of electrical shock induced convulsions; format: in vivo; settings: Rattus norvegicus; oral; 150 mA, 60 Hz transcorneal shock for 0.3 seconds; read-out: ED50 blocking electrical shock induced convulsions
[17] = test system: rats; test: sleep duration in rats; format: in vivo, rat
Method: as §4

[18] = 3.1 mg/kg Compound 1 p.o. + 10 mg/kg Ro 15-1788 i.p.
[19] = inclined screen, fourth day of daily dosing, read-out: ED50 grip strength, tolerance study
[20] = inclined screen, single administration, read-out: ED50 grip strength, tolerance study
[21] = Table 2, read-out: Decrease in Motor Activity (ED50 mg/kg)
[22] = fourth day of daily dosing, read-out: ED50 motor activity, tolerance study
[23] = single administration, read-out: ED50 motor activity, tolerance study

## CC(=O)N(C)c1cccc(-c2ccnc3c(C(=O)c4cccs4)cnn23)c1 [Compound 1, N-methyl-N-(3-{3-[2-thienylcarbonyl]-pyrazol-[1,5-α]-pyrimidin-7-yl}phenyl)acetamide]
[1]
  Hangover Liability Index: 0.0
  potentiation of ETOH delivered 24 hours after drug treatment: failed to potentiate ETOH
[2]; 4.0 mg/kg
  increase in conflict response: drops off
[2]; oral 2.0 mg/kg
  increase above baseline responses to conflict situation: 100%
[3]; rat, in vivo
  amnestic effect: small amnestic effect compared to triazolam or flurazepam
[3]
  Amnestic Liability Index: 0.15
[4]
  ED50: 3 mg/kg
[5]
  effect on accuracy and latency of responses: dose related decrements in both the accuracy and latency of the responses
[6]; [18]
  effect on grip strength (inclined screen) with Ro 15-1788 co-treatment: reverse the impairment of grip strength; also recorded: reversed
[6]; [19]
  ED50: 18.3 mg/kg
[6]; [20]
  ED50: 2.6 mg/kg
[6]; po, inclined screen grip strength test, read-out: ED50 for muscle relaxant effects
  ED50: 2.7 mg/kg
[7]; rats, oral, inducer Bicuculline (iv), read-out: ED50 preventing convulsion
  ED50: 2.3 mg/kg
[7]; rats, oral, inducer Pentylenetetrazol (iv), read-out: ED50 preventing convulsion
  ED50: 2.5 mg/kg
[7]; read-out: ED50 preventing convulsion, rats, oral, inducer Picrotoxin (sc)
  ED50: 1.9 mg/kg
[7]; read-out: ED50 preventing convulsion, rats, oral, inducer Strychnine (sc)
  ED50: 4.4 mg/kg
[7]; all five methods (four chemical inducers and electrical shock)
  anticonvulsant potency relative to reference drugs: less than that of triazolam and greater than that of flurazepam
[8]
  IC50: 9.8 nM
[9]
  sedative potency relative to reference drugs: approximately equipotent with triazolam and more potent than zolpidem and flurazepam
[10]; rat, in vivo, oral, 60 min
  times less ETOH liability compared to triazolam and flurazepam: ≥ 10 times
[10]
  ETOH Liability Index: 0.48
  Minimum Effective Dose (MED mg/kg) to potentiate ETOH-induced loss of righting response: 2.5 mg/kg
[11]
  Emax, maximum enhancement of TBPS binding: 65%
[12]
  changes in EEG power spectrum: a relative decrease in alpha activity and an increase in beta activity
[13]; oral 0.3 mg/kg
  increase in number of shocks accepted vs vehicle control: 100%
[14]
  IC50: 2 nM
[15]; [18]
  effect on motor/locomotor activity with Ro 15-1788 co-treatment: antagonize the decreases in motor activity; also recorded: reversed
[15]; [21]
  ED50: 1.2 mg/kg
[15]; [22]
  ED50: 14.5 mg/kg
[15]; po, activity meter, read-out: ED50 for decrease in motor activity
  ED50: 1.2 mg/kg
[15]; [23]
  ED50: 2.4 mg/kg
[16]
  ED50: 5.5 mg/kg
[17]
  minimum effective dose for increase in sleep duration: 2.0 mg/kg

## CC(=O)Nc1cccc(-c2ccnc3c(C(=O)c4cccs4)cnn23)c1 [desmethyl metabolite of Compound 1]
[8]
  times less potent than Compound 1 in displacing radiolabeled flunitrazepam: approximately 74 times
  IC50: 725 nM
[9]; motor activity, inclined screen, rod walking
  sedative effects in the test panel: did not show sedative effects
[11]
  Emax, maximum enhancement of TBPS binding: 28%
[13]; 12 mg/kg
  effect in thirsty rat conflict model: without effect

## CN1C(=O)CN=C(c2ccccc2)c2cc(Cl)ccc21 [diazepam]
[8]
  IC50: 17 nM
[11]
  Emax, maximum enhancement of TBPS binding: 55%

## CN1C(=O)CN=C(c2ccccc2F)c2cc([N+](=O)[O-])ccc21 [flunitrazepam]
[8]
  IC50: 114 nM

## CCN(CC)CCN1C(=O)CN=C(c2ccccc2F)c2cc(Cl)ccc21 [flurazepam]
[1]
  Hangover Liability Index: 2.5
  potentiation of ETOH delivered 24 hours after drug treatment: significantly potentiated
[3]
  Amnestic Liability Index: 3.1
[10]
  ETOH Liability Index: 4.98
  Minimum Effective Dose (MED mg/kg) to potentiate ETOH-induced loss of righting response: 5.0 mg/kg
[11]
  Emax, maximum enhancement of TBPS binding: 71%
[15]; [21]
  ED50: 24.9 mg/kg

## Cc1nnc2n1-c1ccc(Cl)cc1C(c1ccccc1Cl)=NC2 [triazolam, reference compound]
[1]
  Hangover Liability Index: 10
  potentiation of ETOH delivered 24 hours after drug treatment: significantly potentiated
[3]
  Amnestic Liability Index: 1.6
[6]; [19]
  ED50: > 100 mg/kg
[6]; [20]
  ED50: 5.1 mg/kg
[8]
  IC50: 0.5 nM
[10]
  ETOH Liability Index: 20
  Minimum Effective Dose (MED mg/kg) to potentiate ETOH-induced loss of righting response: .08 mg/kg
[11]
  Emax, maximum enhancement of TBPS binding: 78%
[15]; [21]
  ED50: 1.6 mg/kg
[15]; [22]
  ED50: > 100 mg/kg
[15]; [23]
  ED50: 3.9 mg/kg

## Cc1ccc(-c2nc3ccc(C)cn3c2CC(=O)N(C)C)cc1 [zolpidem]
[8]
  IC50: 26 nM
